In US20150297718A1, “ION[…] OF CATIONIC PRODRUGS FOR TOPICAL TREATMENT OF MUSCU[…] SKIN DISEASES” (priority 2014, published 2015):
pIC50: −log10 of the molar value. Like-named read-outs stand apart in the source and are kept apart here.

How the values were obtained:
[1] = In-vitro side-by-side diffusion cell study, iontophoresis across human epidermis skin; assay type: in vitro ADME; details: KCE 26.6 μmol/ml, PE 4.9 μmol/ml, 0.2 mA
Excerpt: The efficiency in anode iontophoresis delivery of KCE and that in cathode iontophoresis delivery of ketoprofen were compared with an in-vitro side-by-side diffusion cell study. […] The human cadaver epidermis skin was sandwiched between the two half cells with stratum corneum face the donor chamber. For anode iontophoresis of KCE, KCE chloride salt solution (26.6 μmol/ml) was placed in the donor cell. For cathode iontophoresis of ketoprofen (Kt), […] solution (26.6 μmol/ml) was placed in the donor cell. Phosphate buffer solution (0.15 M at pH 7.4) was placed in the receiver chamber. Constant current 0.2 mA was applied to the diffusion cell. The amount of drug penetrated through the skin was collected in the receive chamber and analyzed with a HPLC. The anode iontophoresis of the cationic prodrug KCE delivered 4 times more drug across the skin than that delivered by the cathode iontophoresis of ketoprofen (see FIG. 4A) from the in-vitro study.
Anode iontophoresis of the cationic ketoprofen prodrug KCE (26.6 μmol/ml) with the presence of phenylephrine (PE) (4.9 μmol/ml) in solution was evaluated with an in-vitro diffusion cell study across a human epidermis skin.

[2] = In vivo rat study of iontophoresis delivery on dorsal back skin: tissue and plasma drug concentrations; details: for Drug concentration in the skin: delivered drug (prodrug or ketoprofen); for Concentration of ketoprofen converted from the prodrug in the skin: number in bracket
Procedure: (§1) The anode iontophoresis of ketoprofen cationic prodrugs KCE, KME and cathode iontophoresis of ketoprofen were compared with an in vivo rat study for evaluation of drug penetration into deep tissues. […] A prodrug solution was loaded in the cell. A constant current of 0.4 mA/cm^2 for iontophoresis was applied for 6 hours. At the end of the iontophoresis delivery, the rats were euthanized. The skin of the application site (under the glass cell) was washed with water, tape stripped once to remove residue drug on skin, and then dissected with a biopsy punch for the tissue layers: epidermis and dermis layer (depth 0-3 mm), subcutaneous tissue (fat pad) (3-4 mm), shallow muscle layer (4-6 mm), and deep muscle (6-10 mm). The tissues from the contralateral site were dissected with the same method. In addition, the plasma blood samples were obtained right before the experiment (time 0) and each hour during the experiment. The drug concentrations in the tissue and plasma samples were analyzed with a HPLC.
as §1, with “cationic prodrugs and cathode” for “cationic prodrugs KCE, KME and cathode”, “ketoprofen were also compared with” for “ketoprofen were compared with”, “rat study at 0.4 mA/cm^2 for a shorter duration of 2 hours for evaluation” for “rat study for evaluation”, “applied for 2 hours. At” for “applied for 6 hours. At”
as §1, with “cationic prodrugs and cathode” for “cationic prodrugs KCE, KME and cathode”, “ketoprofen were also compared with” for “ketoprofen were compared with”, “rat study at 0.057 mA/cm^2 for a duration of 6 hours for evaluation” for “rat study for evaluation”, “current of 0.057 mA/cm^2 for” for “current of 0.4 mA/cm^2 for”, “with a HPLC” for “with a HPLC.”
KPE is a prodrug of ketoprofen but with two methyl groups on the nitrogen atom, instead of three methyl groups on the nitrogen atom like KCE and KME. KPE can be presented as a hydrochloride salt. […] Anode iontophoresis delivery of KPE in this aqueous solution at 0.4 mA/cm^2 for a shorter duration of 2 hour was also conducted with the in vivo rat study.

melanoma cell (A375) = experiment: In vitro cell viability assay on melanoma cell growth; assay type: cell-based; details: read-out: 50% inhibition concentration (IC50) on melanoma cell (A375) growth
Excerpt: The drug concentrations in the skin after the iontophoresis delivery of those prodrugs or their parent drug ketoprofen from different iontophoresis conditions are summarized in Table 2. The high drug concentration in the skin can be used for treatment of skin diseases including skin cancers such as melanoma. […] The ketoprofen concentrations in the skin from the iontophoresis delivery was not higher than its IC50 against the melanoma cell growth, but the KCE and KME concentrations in the skin from the anode iontophoresis delivery were higher than their IC50 against the melanoma cell growth. Thus, the anode iontophoresis of the prodrugs can provide high drug accumulation in the skin, and such high drug accumulation in the skin can be used for skin disease treatment.

[3] = Iontophoresis delivery into hairless rat knee joint: tissue and plasma drug concentrations; assay type: in vivo; details: 0.4 mA/cm^2 for 20 min on knee
Procedure: Hairless rats were anaesthetized with isoflurane. A rubber disk shape applicator with a sponge that can hold 0.5 ml of the drug solution was used and a button Ag/AgCl electrode was used as current driving electrode. The delivery area is about 1.2 cm^2. After drug solution was loaded into the sponge, the applicator was placed on the knee cap skin and applied an electric current at 0.4 mA/cm^2 for 20 min. A return electrode was attached to the upper tail of the rat. After that, the skin was cleaned thoroughly with wet Kim wipes. The tissues (skin, muscle and joint) at the application site knee and also the contralateral site knee were collected at 30 min, 2 hr, 4 hr or 6 hr from the start of iontophoresis delivery. Three animals were used for each time point. Blood samples were also collected at appropriate time points. The tissue and blood samples were stored at −80° C. until further processing.

[4] = system: knee arthritis pain model (monosodium iodoacetate); experiment: MIA knee osteoarthritis rat model treated with iontophoresis; assay type: in vivo; details: 0.4 mA/cm^2 for 20 min on days 1, 2, 3 after MIA; versus iontophoresis of NaCl
Procedure: A knee arthritis pain model was established by injection of 50 μl of 60 mg/ml monosodium iodoacetate (MIA) into the left hind knee joint of 12 hairless rats, and they were divided into three groups. The knee diameters of both hind knees were measured. The difference in knee diameters between the left knee and right knee was used as the indicator of the swelling (or inflammation) of the left knee. In addition, the weight bearing of each hind limb was also measured with a Linton incapacitance tester. The percentage of the weight bearing by the left leg was used as an indicator of the pain level in the knee. At 1 day, 2 days, 3 days after the injection of MIA, the left knee of the rats in group 1 was treated with iontophoresis of NaCl to the left hind knee at 0.4 mA/cm^2 for 20 min, group 2 treated with iontophoresis of Kt to the left hind knee at 0.4 mA/cm^2 for 20 min, and group 3 treated with iontophoresis of KCE to the left hind knee at 0.4 mA/cm^2 for 20 min. The knee diameter and weight bearing were measured at day 0 before the MIA injection, and also at day 1, 2, and 3 after the MIA injection but before the iontophoresis treatment. They were also measured at day 4, 6, and 10 after the MIA injection.

[5] = iontophoresis 0.4 mA/cm^2 for 2 hrs
[6] = iontophoresis 0.057 mA/cm^2 for 6 hrs
[7] = iontophoresis 0.4 mA/cm^2 for 6 hrs

SMILES | Amount penetrated across the skin by anode iontophoresis, KCE alone versus KCE with phenylephrine [1] | Plasma drug concentration ([2]; 0.4 mA/cm^2 for 2 hours) | Tissue drug concentrations / direct penetration at the application site ([2]; 0.4 mA/cm^2 for 2 hours) | Drug concentration in the skin [2, 5] | Concentration of ketoprofen converted from the prodrug in the skin [2, 5] | Tissue drug concentrations / direct penetration at the application site ([2]; 0.057 mA/cm^2 for 6 hours) | Plasma drug concentration ([2]; 0.4 mA/cm^2 for 6 hours) | Tissue drug concentrations / direct penetration at the application site ([2]; 0.4 mA/cm^2 for 6 hours) | Drug concentration in the skin [2, 6] | Drug concentration in the skin [2, 7] | pIC50 (melanoma cell (A375); Homo sapiens, A-375, A375 cells) | Plasma Kt concentration [3] | Knee swelling (knee diameter difference left vs right) [4] | Weight bearing of the left leg (pain indicator) [4] | Plasma and contralateral tissue drug concentration ([2]; 0.057 mA/cm^2 for 6 hours) | Drug in tissues at the contralateral site ([2]; 0.4 mA/cm^2 for 2 hours) | Drug in tissues at the contralateral site ([2]; 0.4 mA/cm^2 for 6 hours) | Concentration of ketoprofen converted from the prodrug in the skin [2, 6] | Concentration of ketoprofen converted from the prodrug in the skin [2, 7] | pIC50 (melanoma cell (A375); A375 cells)
CNC[C@H](O)c1cccc(O)c1 [PE, phenylephrine, reference compound] | Significant amount of PE was also delivered across the skin |  |  |  |  |  |  |  |  |  |  |  |  |  |  |  |  |  |  | 
CC(C(=O)OCCCN(C)C)c1cccc(C(=O)c2ccccc2)c1.Cl (stereo not shown) [KPE] |  | lower than that from iontophoresis of Kt | Higher drug concentrations in the tissues at the drug application site than those from the contralateral site | 1883 μmol per kilogram of skin | 736 μmol per kilogram of skin |  |  |  |  |  |  |  |  |  |  |  |  |  |  | 
CC(C(=O)O)c1cccc(C(=O)c2ccccc2)c1 (stereo not shown) [Ketoprofen, reference compound] |  |  | only achieved skin deep penetration with no direct penetration into subcutaneous, shallow muscle or deep muscle tissue | 378 μmol per kilogram of skin |  | only achieved skin deep penetration with no direct penetration into subcutaneous, shallow muscle or deep muscle tissue | high | can only penetrate skin deep | 59 μmol per kilogram of skin | 417 μmol per kilogram of skin | 2.85 | high initial plasma Kt concentration than iontophoresis of the cationic prodrug KCE | not as effective | not as effective |  |  |  |  |  | 
CC(C[N+](C)(C)C)OC(=O)C(C)c1cccc(C(=O)c2ccccc2)c1.[Cl-] (stereo not drawn) [KME, Ketoprofen β-methylcholine ester chloride salt] |  | no ketoprofen or KME in rat plasma was detected | direct penetration into deep tissues and prodrug retaining in the tissues of the application site | 6128 μmol per kilogram of skin | 35 μmol per kilogram of skin | direct penetration into deep tissues that is up into the deep muscles | No prodrug or Kt was detected in the plasma | High prodrug KME concentrations in the tissues of the drug application | 3725 μmol per kilogram of skin | 34768 μmol per kilogram of skin |  |  |  |  | we can detect the parent drug Kt in the plasma and also in the contralateral tissue | no ketoprofen or KME was detected in the tissues at the contralateral site | No prodrug or Kt was detected in the contralateral tissues | 73 μmol per kilogram of skin | 449 μmol per kilogram of skin | 2.81
